Measurements reported in US4695647A, “Aromatic derivatives of 13-azaprostanoic acid” (Drug Science Foundation, priority 1984, dated 1987).
Entries after “also recorded” stand apart in the source; their conditions may differ. Read-outs that look alike come from different tables or passages of the source.

Key:
human platelets = assay: Inhibition of U46619-induced human platelet aggregation; type: cell-based; conditions: for IC50: Homo sapiens, Platelet, 1 min
Experimental: Platelet rich plasma was prepared from four healthy, normal volunteers using standard techniques.
Platelets were aggregated with U46619 (0.5 to 1.0 μM) to produce an
average % aggregation at one minute of 61.3 ± 3.1. The ID50 value
were calculated based on the inhibition of U46619 induced aggregation one
minute after its addition.
Platelets were aggregated with U46619 (0.09 to 0.65 μM) to produce an
average % aggregation at one minute of 47 ± 3. The ID50 values
The potency of PTA-OH and PTA-OM for antagonism of U46619 induced human platelet aggregation was determined as described above.

Solubility = type: physicochemical
platelet aggregation [1] = assay: U46619 and arachidonic acid-induced platelet aggregation; type: cell-based, human
Experimental: Compound A was prepared in a manner analogous to 13 APA itself, i.e., by borohydride reduction of the Schiff base obtained from the reaction of tyramine and ethyl-2-oxo-cyclopentane-heptanoate. This reaction produces about equal amounts of the cis and trans ethyl esters, which were separated on preparative silica gel TLC and subsequently hydrolyzed to the free acids by refluxing in aqueous NaOH.

endotoxic shock = assay: Protection against endotoxic shock (Salmonella endotoxin); type: in vivo, young male Long-Evans rats
From the text: Based on the protective biological response observed and the absence of change in plasma thromboxane levels, it is concluded that trans-13 APT is a thromboxane receptor antagonist.

canine saphenous veins = assay: Antagonism of vascular smooth muscle contraction in canine saphenous veins; type: cell-based
platelet aggregation [2] = conditions: 13-APA itself, stated as background for comparison; cited from earlier work
[3] = pinane analogs, determined as described above, read-out: ID50 (antagonism of U46619 induced human platelet aggregation)
[4] = Table I, U46619 0.5 to 1.0 μM, average % aggregation at one minute 61.3 ± 3.1, indomethacin 10 μM, one minute preincubation, platelet rich plasma, read-out: ID50 (the source's name)
[5] = 30 mg/kg i.p., vs vehicle pretreated animals
[6] = Table 2, U46619 0.09 to 0.65 μM, average % aggregation at one minute 47 ± 3, indomethacin 10 μM, one minute preincubation, read-out: ID50 (the source's name)

SMILES: CC1(C)C2CC(NCC(O)Cc3ccc(O)cc3)C(C/C=C\CCCC(=O)O)C1C2 (stereo not drawn) [PTA-OH, 13-aza-16-(p-hydroxyphenyl) pinane TxA2]
- relative potency as inhibitor of human platelet aggregation (human platelets): more potent than 13-aza-16-(p-methoxyphenyl) pinane TxA2 (PTA-OM)
- IC50 (human platelets; [3]): 0.52 ± 0.07 µM

SMILES: CCCCCCCN[C@H]1CCC[C@H]1CCCCCCC(=O)O (relative stereo) [13-cis-azaprostanoic acid, reference compound]
- IC50 (human platelets; [4]): 14.8 ± 2.2 µM

SMILES: O=C(O)CCCCCC[C@@H]1CCC[C@H]1NCC(O)c1ccc(O)cc1 (stereo partly drawn) [Compound 13-trans-APO, 7-(2-p-hydroxyphenylethanolamino-cyclopentyl)-heptanoic acid]
- IC50 (human platelets; [4]): 8.3 ± 1.4 µM
- solubility in ethanol (Solubility): practically insoluble

SMILES: O=C(O)CCCCCCC1CCCC1NCCc1ccc(O)cc1 (stereo not drawn) [Compound A, 7-(2-p-hydroxyphenethylamino-cyclopenthyl)-heptanoic acid]
- activity and relative potency of isomers in platelet aggregation (platelet aggregation [1]): the two isomers were active, with the trans more potent than the cis; also recorded: significantly more potent than the parent 13-APA

SMILES: O=C(O)CCCCCC[C@@H]1CCC[C@H]1NCCc1ccc(O)cc1 (relative stereo) [Compound 13-trans-APT, 7-(2-p-hydroxphenethylamino-cyclopentyl)-heptanoic acid]
- plasma thromboxane B2 levels (endotoxic shock; 30 mg/kg i.p., 30 minutes and four hours after endotoxin, vs vehicle): elevated to the same degree
- 6-keto-PGF1α levels (endotoxic shock; [5]): significantly lower
- endotoxic shock as measured by hypoglycemia, thrombocytopenia and tissue infarct effects (endotoxic shock; [5]): less subject to endotoxic shock
- protection against endotoxic shock (endotoxic shock; 30 mg/kg, intraperitoneal pretreatment, endotoxin intravenously): protected against endotoxic shock
- protection against pathophysiologic sequelae of S. enteritidis endotoxemia (endotoxic shock; 30 mg/kg, rats): effective in protecting rats
- IC50 (human platelets; [4]): 9.9 ± 1.7 µM

SMILES: O=C(O)CCCCCC[C@@H]1CCC[C@@H]1NCC(O)c1ccc(O)cc1 (stereo partly drawn) [Compound 13-cis-APO, 7-(2-p-hydroxyphenylethanolamino-cyclopentyl)-heptanoic acid]
- IC50 (human platelets; [6]): 6.4 ± 0.7 µM
- IC50 (human platelets; [4]): 16 ± 3.2 µM

SMILES: O=C(O)CCCCCC[C@H]1CCC[C@H]1NCC(O)c1ccc(O)c(I)c1 (relative stereo) [13-cis-iodo APO]
- IC50 (human platelets; [6]): 9.8 ± 1.3 µM

SMILES: COc1ccc(CC(O)CNC2CC3CC(C2C/C=C\CCCC(=O)O)C3(C)C)cc1 (stereo not drawn) [PTA-OM, 13-aza-16-(p-methoxyphenyl) pinane TxA2]
- relative potency as antagonist of vascular smooth muscle contraction (canine saphenous veins): more potent than PTA-OH
- IC50 (human platelets; [3]): 1.56 ± 0.35 µM

SMILES: CC1(C)C2CC(NCC(O)Cc3ccc(O)c(I)c3)C(C/C=C\CCCC(=O)O)C1C2 (stereo not drawn) [^127 I-PTA-OH]
- IC50 (human platelets; [3]): 0.38 ± 0.05 µM

SMILES: CCCCCCCN[C@@H]1CCC[C@H]1CCCCCCC(=O)O (relative stereo) [13-trans-azaprostanoic acid, reference compound]
- IC50 (human platelets; [4]): 13.6 ± 1.9 µM

SMILES: CCCCCCCN[C@H]1CCC[C@@H]1CCCCCCC(=O)O [Compound 13-APA, 13-Azaprostanoic acid]
- relative potency of isomers (platelet aggregation [2]): much more potent as the trans form

SMILES: O=C(O)CCCCCC[C@@H]1CCC[C@@H]1NCCc1ccc(O)cc1 (relative stereo) [Compound 13-cis-APT, 7-(2-p-hydroxphenethylamino-cyclopentyl)-heptanoic acid]
- IC50 (human platelets; [4]): 17.6 ± 4.4 µM
